Consider four compounds from patent publication US4897254A, “Radioactive compositions for the treatment of calcific tumors” (priority 1987, dated 1990).

As a reminder, the half-life is the time in which the quantity being followed falls by half.

The conditions of data set [1]: cited from earlier work.
Data set [2] is described as follows: two-hour rat biodistribution after tail vein injection (NaI scintillation counting of dissected tissues). Particulars: in vivo. An excerpt: Quantitative biodistributions were obtained by injecting 50-100 microliters of the composition into the tail vein of unanesthetized male Sprague Dawley rats. The rats were then placed in cages lined with absorbent paper in order to collect all urine excreted prior to sacrifice. After a given period of time, the rats were sacrificed by cervical dislocation and the various tissues dissected. The samples were then rinsed with saline, blotted dry on absorbent paper and weighed.

For data set [3] the following is noted: radionuclide; cited from earlier work.
Setting [4] is: patients with metastatic bone lesions.

Take `NC(c1ccc(O)c([131I])c1)(P(=O)(O)O)P(=O)(O)O` [α-amino-(3-iodo-4-hydroxybenzylidene)diphosphonate]: the possible metabolite result in data set [1] (in vivo) is reported as “iodide as one of the possible metabolites”. Take “Sm-153-diethylenetriaminepentaacetic acid [Sm-153-DTPA]”: the “skeletal uptake (in words)” value in data set [2] is on record as “low skeletal uptake”.

As for “Sm-153-nitrilotriacetic acid [Sm-153-NTA]”, the “liver uptake (in words)” value in data set [2] was “high liver uptake”. For the compound Strontium-89, in data set [3], the half-life is reported as 50.4 days. Besides, in data set [1] (setting [4]), the blood levels entry is listed as “high blood levels” and the “lesion to normal bone ratios” value was “low lesion to normal bone ratios”.
